For 7 compounds, IC50 results are on record in patent US20240182531A1, “KV1.3 Blockers” (priority 2021, published 2024).

The experiment addresses T1, human Kv1.3 voltage-gated K+ channel (Homo sapiens, UniProt P22001).
T1 construct: host or cells: CHO-DUKX
The experiment can be described thus: Kv1.3 blocker activity in FLIPR thallium assay. It counts as cell-based. The method, then:
A human Kv1.3 voltage-gated K+ channel cell line was purchased from Perkin Elmer (#TDS-AX-010-C-1). The cell line is based on CHO-DUKX cells stably transfected with the human Kv1.3 voltage-gated K+ channel.
The cell line was grown in MEMα with nucleotides, GlutaMAX (Gibco #32571028), 10% Foetal Bovine Serum (FBS), 0.4 mg/ml Geneticin, 100 units/ml Penicillin, and 100 μg/ml Streptomycin and seeded at 10.000 cells/well in black poly-D-lysine-coated 96 well plates.
The FluxOR™ Potassium Ion Channel Assay (Invitrogen #F10016) was used to quantitate flux of thallium ions into the cells as a response to Kv1.3 activation with a stimulus buffer causes depolarization of the cell membrane, thereby generating a fluorescent signal, proportional to channel activity. The assay was performed as described by the assay kit manufacturer including a compound pre-incubation step (30 min, 37° C., 5% CO2) in assay buffer containing 0.02% W/v casein from bovine milk (Sigma #C4765) prior to cell membrane depolarization using a final stimuli buffer composition corresponding to 0.2× FluxOR™ chloride-free buffer, 5 mM K2SO4, 1 mM Tl2SO4. The fluorescence responses were recorded and quantified (maximum response at 50 s, 37° C.) using the FLIPR® Tetra High Throughput Screening System (Molecular Devices, Inc.).
IC50 can be regarded as a measure of potency of inhibition for the respective compound. The IC50 value is a measure of the concentration of an inhibitor required to achieve half of that compound's maximal inhibition of ion channel activity in a given assay.

Where a SMILES comes first, the peptide text is derived from it. Bridges are numbered along the chain shown (N, C = ends). [ ]: non-standard residue; d: D form. Nle = CCCC[C@H](N)C(=O)O; Orn = NCCC[C@H](N)C(=O)O; Dab = NCC[C@H](N)C(=O)O; Dap = NC[C@H](N)C(=O)O

T1 sequence (P22001 whole entry): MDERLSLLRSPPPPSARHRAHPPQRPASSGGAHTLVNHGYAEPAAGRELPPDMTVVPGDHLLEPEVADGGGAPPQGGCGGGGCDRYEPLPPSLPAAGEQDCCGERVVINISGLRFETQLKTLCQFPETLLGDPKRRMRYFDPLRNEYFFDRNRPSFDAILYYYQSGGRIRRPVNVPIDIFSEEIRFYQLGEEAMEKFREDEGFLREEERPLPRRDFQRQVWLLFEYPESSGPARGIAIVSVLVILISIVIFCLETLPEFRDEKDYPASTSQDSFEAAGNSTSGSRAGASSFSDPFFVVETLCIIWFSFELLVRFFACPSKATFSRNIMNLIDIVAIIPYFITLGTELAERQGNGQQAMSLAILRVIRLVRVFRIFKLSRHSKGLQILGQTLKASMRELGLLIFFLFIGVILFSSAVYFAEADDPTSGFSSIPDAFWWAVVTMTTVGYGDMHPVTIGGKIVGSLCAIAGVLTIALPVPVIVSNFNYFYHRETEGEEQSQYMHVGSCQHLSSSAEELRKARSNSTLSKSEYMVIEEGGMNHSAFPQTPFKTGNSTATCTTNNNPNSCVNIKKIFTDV

Turning to `CCCC[C@H](NC(=O)[C@@H]1CCCN1)C(=O)N[C@@H](CCC(=O)O)C(=O)N[C@@H](CCCC)C(=O)N[C@@H](CCCNC(=N)N)C(=O)N[C@H]1CSSC[C@@H]2NC(=O)[C@H](CCCCN)NC(=O)CNC(=O)[C@H](Cc3ccccc3)NC(=O)[C@H]([C@@H](C)CC)NC(=O)[C@H](CO)NC(=O)CNC(=O)[C@H]([C@@H](C)CC)NC(=O)[C@H](C)NC(=O)[C@H](C)NC(=O)[C@H](CC(C)C)NC(=O)[C@@H]3CSSC[C@@H](C(=O)N[C@@H](Cc4ccc(O)cc4)C(=O)N4CCC[C@H]4C(=O)N[C@@H](CCCNC(=N)N)C(=O)O)NC(=O)[C@H](CCCCN)NC(=O)[C@H](CSSC[C@H](NC(=O)[C@H](CCC(=O)O)NC(=O)[C@H](C(C)C)NC(=O)[C@H](CO)NC(=O)[C@H](C)NC(=O)[C@H](CCCN)NC1=O)C(=O)N[C@@H](CCCCN)C(=O)N[C@@H](CCC(N)=O)C(=O)N[C@@H](CCCCN)C(=O)N3)NC(=O)[C@H](CCCCN)NC(=O)[C@H](CCCCN)NC(=O)[C@H](CC(N)=O)NC(=O)[C@H](CCCC)NC2=O` [compound 2] (H-P[Nle]E[Nle]RC[Orn]ASVECKQKCLAAIGSIFGKC[Nle]NKKCKCYPR-OH; disulfide 6-27, 12-32, 16-34), inhibition was half-maximal at 0.12 nM (IC50).

On to `CCCC[C@H](NC(=O)[C@@H]1CCCN1)C(=O)N[C@@H](CCC(=O)O)C(=O)N[C@@H](CCCC)C(=O)N[C@@H](CCCNC(=N)N)C(=O)N[C@H]1CSSC[C@@H]2NC(=O)[C@H](CCCCN)NC(=O)CNC(=O)[C@H](Cc3ccccc3)NC(=O)[C@H]([C@@H](C)CC)NC(=O)[C@H](CO)NC(=O)CNC(=O)[C@H]([C@@H](C)CC)NC(=O)[C@H](C)NC(=O)[C@H](C)NC(=O)[C@H](CC(C)C)NC(=O)[C@@H]3CSSC[C@@H](C(=O)N[C@@H](Cc4ccc(O)cc4)C(=O)N4CCC[C@H]4C(=O)N[C@@H](CCCNC(=N)N)C(=O)O)NC(=O)[C@H](CCCCN)NC(=O)[C@H](CSSC[C@H](NC(=O)[C@H](CCC(=O)O)NC(=O)[C@H](C(C)C)NC(=O)[C@H](CO)NC(=O)[C@H](C)NC(=O)[C@H](Cc4ccc(O)cc4)NC1=O)C(=O)N[C@@H](CCCCN)C(=O)N[C@@H](CCC(N)=O)C(=O)N[C@@H](CCCCN)C(=O)N3)NC(=O)[C@H](CCCCN)NC(=O)[C@H](CCCCN)NC(=O)[C@H](CC(N)=O)NC(=O)[C@H](CCCC)NC2=O` [compound 5] (H-P[Nle]E[Nle]RCYASVECKQKCLAAIGSIFGKC[Nle]NKKCKCYPR-OH; disulfide 6-27, 12-32, 16-34), for which the IC50 was determined as 0.18 nM.

In turn, `CCCC[C@H](NC(=O)[C@@H]1CCCN1)C(=O)N[C@@H](CCC(=O)O)C(=O)N[C@@H](CCCC)C(=O)N[C@@H](CCCNC(=N)N)C(=O)N[C@H]1CSSC[C@@H]2NC(=O)[C@H](CCCCN)NC(=O)CNC(=O)[C@H](Cc3ccccc3)NC(=O)[C@H]([C@@H](C)CC)NC(=O)[C@H](CO)NC(=O)CNC(=O)[C@H]([C@@H](C)CC)NC(=O)[C@H](C)NC(=O)[C@H](C)NC(=O)[C@H](CC(C)C)NC(=O)[C@@H]3CSSC[C@@H](C(=O)N[C@@H](Cc4ccc(O)cc4)C(=O)N4CCC[C@H]4C(=O)N[C@@H](CCCNC(=N)N)C(=O)O)NC(=O)[C@H](CCCCN)NC(=O)[C@H](CSSC[C@H](NC(=O)[C@H](CCC(=O)O)NC(=O)[C@H](C(C)C)NC(=O)[C@H](CCCN)NC(=O)[C@H](C)NC(=O)[C@H](CO)NC1=O)C(=O)N[C@@H](CCCCN)C(=O)N[C@@H](CCC(N)=O)C(=O)N[C@@H](CCCCN)C(=O)N3)NC(=O)[C@H](CCCCN)NC(=O)[C@H](CCCCN)NC(=O)[C@H](CC(N)=O)NC(=O)[C@H](CCCC)NC2=O` [compound 6] (H-P[Nle]E[Nle]RCSA[Orn]VECKQKCLAAIGSIFGKC[Nle]NKKCKCYPR-OH; disulfide 6-27, 12-32, 16-34) returned an IC50 of 33 nM.

In turn, `CCCC[C@H](NC(=O)[C@@H]1CCCN1)C(=O)N[C@@H](CCC(=O)O)C(=O)N[C@@H](CCCC)C(=O)N[C@@H](CCCNC(=N)N)C(=O)N[C@H]1CSSC[C@@H]2NC(=O)[C@H](CCCCN)NC(=O)CNC(=O)[C@H](Cc3ccccc3)NC(=O)[C@H]([C@@H](C)CC)NC(=O)[C@H](CO)NC(=O)CNC(=O)[C@H]([C@@H](C)CC)NC(=O)[C@H](C)NC(=O)[C@H](C)NC(=O)[C@H](CC(C)C)NC(=O)[C@@H]3CSSC[C@@H](C(=O)N[C@@H](Cc4ccc(O)cc4)C(=O)N4CCC[C@H]4C(=O)N[C@@H](CCCNC(=N)N)C(=O)O)NC(=O)[C@H](CCCCN)NC(=O)[C@H](CSSC[C@H](NC(=O)[C@H](CCC(=O)O)NC(=O)[C@H](C(C)C)NC(=O)[C@H](CO)NC(=O)[C@H](C)NC(=O)[C@H](CN)NC1=O)C(=O)N[C@@H](CCCCN)C(=O)N[C@@H](CCC(N)=O)C(=O)N[C@@H](CCCCN)C(=O)N3)NC(=O)[C@H](CCCCN)NC(=O)[C@H](CCCCN)NC(=O)[C@H](CC(N)=O)NC(=O)[C@H](CCCC)NC2=O` [compound 7] (H-P[Nle]E[Nle]RC[Dap]ASVECKQKCLAAIGSIFGKC[Nle]NKKCKCYPR-OH; disulfide 6-27, 12-32, 16-34) returned a 50% inhibitory concentration (IC50) of 0.28 nM.

In the case of `CCCC[C@H](NC(=O)[C@@H]1CCCN1)C(=O)N[C@@H](CCC(=O)O)C(=O)N[C@@H](CCCC)C(=O)N[C@@H](CCCNC(=N)N)C(=O)N[C@H]1CSSC[C@@H]2NC(=O)[C@H](CCCCN)NC(=O)CNC(=O)[C@H](Cc3ccccc3)NC(=O)[C@H]([C@@H](C)CC)NC(=O)[C@H](CO)NC(=O)CNC(=O)[C@H]([C@@H](C)CC)NC(=O)[C@H](C)NC(=O)[C@H](C)NC(=O)[C@H](CC(C)C)NC(=O)[C@@H]3CSSC[C@@H](C(=O)N[C@@H](Cc4ccc(O)cc4)C(=O)N4CCC[C@H]4C(=O)N[C@@H](CCCNC(=N)N)C(=O)O)NC(=O)[C@H](CCCCN)NC(=O)[C@H](CSSC[C@H](NC(=O)[C@H](CCC(=O)O)NC(=O)[C@H](C(C)C)NC(=O)[C@H](CN)NC(=O)[C@H](C)NC(=O)[C@H](CO)NC1=O)C(=O)N[C@@H](CCCCN)C(=O)N[C@@H](CCC(N)=O)C(=O)N[C@@H](CCCCN)C(=O)N3)NC(=O)[C@H](CCCCN)NC(=O)[C@H](CCCCN)NC(=O)[C@H](CC(N)=O)NC(=O)[C@H](CCCC)NC2=O` [compound 8] (H-P[Nle]E[Nle]RCSA[Dap]VECKQKCLAAIGSIFGKC[Nle]NKKCKCYPR-OH; disulfide 6-27, 12-32, 16-34), the IC50 stood at 0.26 nM.

Take `CCCC[C@H](NC(=O)[C@@H]1CCCN1)C(=O)N[C@@H](CCC(=O)O)C(=O)N[C@@H](CCCC)C(=O)N[C@@H](CCCNC(=N)N)C(=O)N[C@H]1CSSC[C@@H]2NC(=O)[C@H](CCCCN)NC(=O)CNC(=O)[C@H](Cc3ccccc3)NC(=O)[C@H]([C@@H](C)CC)NC(=O)[C@H](CO)NC(=O)CNC(=O)[C@H]([C@@H](C)CC)NC(=O)[C@H](C)NC(=O)[C@H](C)NC(=O)[C@H](CC(C)C)NC(=O)[C@@H]3CSSC[C@@H](C(=O)N[C@@H](Cc4ccc(O)cc4)C(=O)N4CCC[C@H]4C(=O)N[C@@H](CCCNC(=N)N)C(=O)O)NC(=O)[C@H](CCCCN)NC(=O)[C@H](CSSC[C@H](NC(=O)[C@H](CCC(=O)O)NC(=O)[C@H](C(C)C)NC(=O)[C@H](CO)NC(=O)[C@H](C)NC(=O)[C@H](CCN)NC1=O)C(=O)N[C@@H](C)C(=O)N[C@@H](CCC(N)=O)C(=O)N[C@@H](CO)C(=O)N3)NC(=O)[C@H](CCCCN)NC(=O)CNC(=O)[C@H](CC(N)=O)NC(=O)[C@H](CCCC)NC2=O` [compound 9] (H-P[Nle]E[Nle]RC[Dab]ASVECAQSCLAAIGSIFGKC[Nle]NGKCKCYPR-OH; disulfide 6-27, 12-32, 16-34): inhibition was half-maximal at 4.6 nM (IC50).

In the case of `CCCC[C@H](NC(=O)[C@@H]1CCCN1)C(=O)N[C@@H](CCC(=O)O)C(=O)N[C@@H](CCCC)C(=O)N[C@@H](CCCNC(=N)N)C(=O)N[C@H]1CSSC[C@@H]2NC(=O)[C@H](CCCCN)NC(=O)CNC(=O)[C@H](Cc3ccccc3)NC(=O)[C@H]([C@@H](C)CC)NC(=O)[C@H](CO)NC(=O)CNC(=O)[C@H]([C@@H](C)CC)NC(=O)[C@H](C)NC(=O)[C@H](C)NC(=O)[C@H](CC(C)C)NC(=O)[C@@H]3CSSC[C@@H](C(=O)N[C@@H](Cc4ccc(O)cc4)C(=O)N4CCC[C@H]4C(=O)N[C@@H](CCCNC(=N)N)C(N)=O)NC(=O)[C@H](CCCCN)NC(=O)[C@H](CSSC[C@H](NC(=O)[C@H](CCC(=O)O)NC(=O)[C@H](C(C)C)NC(=O)[C@H](CO)NC(=O)[C@H](C)NC(=O)[C@H](CCN)NC1=O)C(=O)N[C@@H](C)C(=O)N[C@@H](CCC(N)=O)C(=O)N[C@@H](CO)C(=O)N3)NC(=O)[C@H](CCCCN)NC(=O)CNC(=O)[C@H](CC(N)=O)NC(=O)[C@H](CCCC)NC2=O` [compound 10] (H-P[Nle]E[Nle]RC[Dab]ASVECAQSCLAAIGSIFGKC[Nle]NGKCKCYPR-NH2; disulfide 6-27, 12-32, 16-34), the IC50 was 0.33 nM.
